Tests used:
Danio rerio embryo [1] = assay: EC20 Heart rate; higher = less potent
Experimental: (§1)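 Zebrafish embryos (UFZ-OBI strain) were exposed from 2 hpf for 48 h (2 dpf) or 96 h (4 dpf) at 28 °C; spontaneous tail coiling was scored at 25 hpf. Morphological features from automated image analysis (FishInspector), heart rate and locomotor response were fitted with drc models. Quantal endpoints were dichotomised at 2.5 SD from controls and fitted with a log-logistic model; heart rate, pigmentation and STC were normalised to the replicate control mean. Betamethasone was tested as betamethasone dipropionate, diflorasone as diflorasone diacetate.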

Danio rerio embryo [2] = assay: EC10 Lack of SB; higher = less potent; details: exposure time: 4 dpf
Experimental: as §1

Danio rerio embryo [3] = assay: EC20 Bladder size_Decrease; higher = less potent; details: exposure time: 4 dpf
Experimental: as §1

Danio rerio embryo [4] = assay: EC10 Pigmentation increase; higher = less potent; details: exposure time: 4 dpf
Experimental: as §1

Danio rerio embryo [5] = assay: EC20 Eye size_Decrease; higher = less potent; details: exposure time: 2 dpf
Experimental: as §1

Danio rerio embryo [6] = system: Danio rerio embryo
Experimental: as §1

Danio rerio embryo [7] = assay: EC10 Yolk sac size_Increase; higher = less potent; details: exposure time: 4 dpf
Experimental: as §1

Danio rerio embryo [8] = system: Danio rerio embryo; remark: listed apart in the source
Experimental: as §1

Danio rerio embryo [9] = assay: EC10 Eye-jaw distance_Decrease; higher = less potent; details: exposure time: 4 dpf
Experimental: as §1

Danio rerio embryo [10] = assay: EC20 Body length_Decrease; higher = less potent
Experimental: as §1

Danio rerio embryo [11] = assay: EC50 Bladder size_Decrease; details: exposure time: 4 dpf
Experimental: as §1

Danio rerio embryo [12] = assay: EC20 Any effect; higher = less potent
Experimental: as §1

Danio rerio embryo [13] = assay: EC20 Yolk sac size_Increase; higher = less potent; details: exposure time: 4 dpf
Experimental: as §1

Danio rerio embryo [14] = assay: EC50 Curvature_Increase; details: exposure time: 2 dpf
Experimental: as §1

Danio rerio embryo [15] = assay: EC50 Body length_Decrease
Experimental: as §1

Danio rerio embryo [16] = assay: EC10 Heart rate; higher = less potent
Experimental: as §1

Danio rerio embryo [17] = assay: EC20 Curvature_Increase; higher = less potent; details: exposure time: 2 dpf
Experimental: as §1

Danio rerio embryo [18] = assay: EC50 Yolk sac size_Increase; details: exposure time: 4 dpf
Experimental: as §1

Danio rerio embryo [19] = assay: EC20 LMR dark; higher = less potent; details: exposure time: 4 dpf
Experimental: as §1

`CC1(C)OC(=O)C(OCC2CC2)=C1c1ccc(S(C)(=O)=O)cc1` [Firocoxib] was tested, and the “EC20 Heart rate” value (Danio rerio embryo [1]; exposure time: 2 dpf) was 113 µM, the “EC20 Heart rate” value (Danio rerio embryo [1]; exposure time: 4 dpf) was 38.8 µM and the “EC10 Lack of SB” value (Danio rerio embryo [2]) was 34.7 µM. For the same molecule, the “EC20 Bladder size Decrease” value (Danio rerio embryo [3]) was 39 µM, the “EC10 Pigmentation increase” value (Danio rerio embryo [4]) was 83 µM and the “EC20 Eye size Decrease” value (Danio rerio embryo [5]) was 93.3 µM. The “EC50 Heart rate” value (Danio rerio embryo [6]; exposure time: 2 dpf) was 181 µM, the “EC50 Heart rate” value (Danio rerio embryo [6]; exposure time: 4 dpf) was 56.2 µM and the “EC10 Yolk sac size Increase” value (Danio rerio embryo [7]) was 48.1 µM. For the same molecule, the “EC50 Any effect” value (Danio rerio embryo [8]; exposure time: 2 dpf) was 121 µM, the “EC50 Any effect” value (Danio rerio embryo [8]; exposure time: 4 dpf) was 147 µM and the “EC10 Eye-jaw distance Decrease” value (Danio rerio embryo [9]) was 79.2 µM. For the same molecule, the “EC20 Body length Decrease” value (Danio rerio embryo [10]; exposure time: 2 dpf) was 82.7 µM, the “EC20 Body length Decrease” value (Danio rerio embryo [10]; exposure time: 4 dpf) was 94.5 µM and the “EC50 Bladder size Decrease” value (Danio rerio embryo [11]) was 56.3 µM. The “EC20 Any effect” value (Danio rerio embryo [12]; exposure time: 2 dpf) was 73.7 µM, the “EC20 Any effect” value (Danio rerio embryo [12]; exposure time: 4 dpf) was 85.4 µM and the “EC20 Yolk sac size Increase” value (Danio rerio embryo [13]) was 68.9 µM. The “EC50 Curvature Increase” value (Danio rerio embryo [14]) was 109 µM, the “EC50 Body length Decrease” value (Danio rerio embryo [15]; exposure time: 2 dpf) was 109 µM and the “EC50 Body length Decrease” value (Danio rerio embryo [15]; exposure time: 4 dpf) was 113 µM. The “EC10 Heart rate” value (Danio rerio embryo [16]; exposure time: 2 dpf) was 86.2 µM, the “EC10 Heart rate” value (Danio rerio embryo [16]; exposure time: 4 dpf) was 31.2 µM and the “EC20 Curvature Increase” value (Danio rerio embryo [17]) was 85.4 µM. The “EC50 Yolk sac size Increase” value (Danio rerio embryo [18]) was 128 µM and the “EC20 LMR dark” value (Danio rerio embryo [19]) was 22.9 µM.

— the supplement of paper PMC9013687
